Columns and labels:
CYP2B6 = molecular target: T1, CYP2B6 (Homo sapiens, UniProt P20813); assay: Microsomal CYP inhibition assay, CYP2B6; type: in vitro ADME; settings: pooled human liver microsomes, probe bupropion
T1 construct: from tissue; host or cells: pooled human liver microsomes
T1 sequence (P20813 1-491): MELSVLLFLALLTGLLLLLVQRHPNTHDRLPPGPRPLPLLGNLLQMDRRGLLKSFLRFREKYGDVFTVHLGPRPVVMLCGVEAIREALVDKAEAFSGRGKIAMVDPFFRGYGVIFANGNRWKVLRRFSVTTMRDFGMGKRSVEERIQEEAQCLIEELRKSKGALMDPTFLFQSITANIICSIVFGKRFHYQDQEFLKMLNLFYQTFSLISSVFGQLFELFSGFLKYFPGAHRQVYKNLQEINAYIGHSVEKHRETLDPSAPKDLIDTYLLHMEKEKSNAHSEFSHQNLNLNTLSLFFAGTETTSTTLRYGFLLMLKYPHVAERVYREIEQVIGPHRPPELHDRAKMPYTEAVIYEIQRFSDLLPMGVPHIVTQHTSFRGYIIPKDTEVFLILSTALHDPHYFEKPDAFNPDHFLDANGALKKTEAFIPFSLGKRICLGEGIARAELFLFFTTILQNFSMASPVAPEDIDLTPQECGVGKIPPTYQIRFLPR
Description: (§1) To assess potential cardiotoxicity, we performed the human ether-go-go-related gene (hERG) inhibition assay. […] Briefly, EP was tested at six concentrations (cumulative concentration–response). […] For hepatotoxicity determination, we performed the microsomal CYP inhibition assay. Briefly, EP was incubated at seven increasing concentrations with pooled human liver microsomes. […] The supernatants were analyzed by LC-MS/MS.

CYP2C19 = molecular target: T2, CYP2C19 (Homo sapiens, UniProt P33261); assay: Microsomal CYP inhibition assay, CYP2C19; type: in vitro ADME; settings: pooled human liver microsomes, probe mephenytoin; read-out: CYP-2C19 inhibition
T2 construct: from tissue; host or cells: pooled human liver microsomes
T2 sequence (P33261 whole entry): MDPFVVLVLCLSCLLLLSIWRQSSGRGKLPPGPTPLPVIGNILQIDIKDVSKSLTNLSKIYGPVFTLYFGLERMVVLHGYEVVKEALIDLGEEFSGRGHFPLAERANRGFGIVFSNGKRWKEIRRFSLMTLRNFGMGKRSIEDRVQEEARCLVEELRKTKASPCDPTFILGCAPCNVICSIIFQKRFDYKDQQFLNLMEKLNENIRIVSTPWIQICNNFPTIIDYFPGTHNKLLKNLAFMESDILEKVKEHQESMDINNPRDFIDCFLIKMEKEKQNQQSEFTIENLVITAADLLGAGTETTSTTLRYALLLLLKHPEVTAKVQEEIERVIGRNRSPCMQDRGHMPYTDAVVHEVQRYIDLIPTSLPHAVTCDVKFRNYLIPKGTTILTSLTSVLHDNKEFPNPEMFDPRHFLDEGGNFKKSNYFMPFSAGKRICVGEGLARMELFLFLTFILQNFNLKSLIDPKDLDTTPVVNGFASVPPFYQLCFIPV
Description: as §1

CYP2D6 = CYP2D6 (Homo sapiens, UniProt P10635); assay: Microsomal CYP inhibition assay, CYP2D6; type: in vitro ADME; settings: pooled human liver microsomes, probe dextromethorphan
CYP2D6, sequence (P10635 whole entry): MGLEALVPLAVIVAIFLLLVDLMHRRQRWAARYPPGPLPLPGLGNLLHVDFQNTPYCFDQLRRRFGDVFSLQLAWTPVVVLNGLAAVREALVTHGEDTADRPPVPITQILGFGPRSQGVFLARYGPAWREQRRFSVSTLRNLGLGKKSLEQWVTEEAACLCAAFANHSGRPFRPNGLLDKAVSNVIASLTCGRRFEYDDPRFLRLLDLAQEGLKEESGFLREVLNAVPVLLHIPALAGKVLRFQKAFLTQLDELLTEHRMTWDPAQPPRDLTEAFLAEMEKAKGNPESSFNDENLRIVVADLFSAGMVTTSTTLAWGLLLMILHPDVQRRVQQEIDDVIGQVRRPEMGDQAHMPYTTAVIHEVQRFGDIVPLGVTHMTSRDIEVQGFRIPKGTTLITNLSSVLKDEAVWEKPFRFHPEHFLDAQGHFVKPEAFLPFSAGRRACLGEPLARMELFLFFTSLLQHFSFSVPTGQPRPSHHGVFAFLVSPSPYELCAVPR
Description: as §1

Caco-2 cells = assay: Caco-2 permeability assay; type: in vitro ADME; settings: Caco-2
Description: It was performed in the 96-well Transwell system with a modified method.[36] Caco-2 cells were maintained at 37 °C in a humidified incubator with an atmosphere of 5% CO2. The cells were cultured in MEM containing 20% FBS in […], 100 units/mL penicillin, and 100 μg/mL of streptomycin. The Caco-2 cells were seeded onto inserts of a 96-well plate at a density of 0.5 × 10^5 cells/insert and cultured in the MEM containing 20% FBS for 7 days. Each cultured monolayer on the 96-well plate was washed twice with HBSS/HEPES (10 mM, pH 7.4). The permeability assay was initiated by the addition of each compound solution (10 μmol/L) into inserts (apical side, A) or receivers (basolateral side, B). The Caco-2 cell monolayers were incubated for 2 h at 37 °C. Fractions were collected from receivers (if apical to basal permeability) or inserts (if basal to apical permeability), and concentrations were assessed by UPLC/MS (Waters; Milford, MA). All compounds were tested in triplicates. The A → B (or B → A) apparent permeability coefficients ([…]) of each compound were calculated using the equation Pappa = dQ/dt × 1/AC0. The flux of a drug across the monolayer is dQ/dt (μmol/s). The initial drug concentration on the apical side is C0 (μmol/L). The surface area of the monolayer is A (cm^2).

[1] = Parallel Artificial Membrane Permeability Assay (PAMPA); type: in vitro ADME
Description: This assay is to analyze the permeability of various drugs/compounds on a homogeneous artificial lipid membrane using the normal Double-Sink PAMPA protocol. Then, 6 μL of 10 mM compound solution in DMSO was applied to each well in a stock plate. Compounds were diluted 200-fold in PBS buffer (pH = 7.4). 180 μL of diluted solution was added to a donor plate (pION INC, Woburn, MA). A filter plate (acceptor plate; pION INC, Woburn, MA) containing 200 μL of acceptor sink buffer (ASB, pH = 7.4; pION INC, Woburn, MA) was then placed over the donor plate. The plates were incubated at room temperature for 0.5 h with magnetic stirring in individual wells to allow the compounds to cross the membrane. Fractions were collected from both the donor plate and the acceptor plate, and the concentrations were assessed by UV spectrometry (230–500 nm). Sample preparation, sample analysis, and data processing are fully automated using a Biomek FX ADME-TOX workstation and the UV-based PAMPA Evolution-96 Command Software. All compounds were tested in triplicates.

CYP1A2 = molecular target: T3, CYP1A2 (Homo sapiens, UniProt P05177); assay: Microsomal CYP inhibition assay, CYP1A2; type: in vitro ADME; settings: pooled human liver microsomes, probe tacrine
T3 construct: from tissue; host or cells: pooled human liver microsomes
T3 sequence (P05177 1-516): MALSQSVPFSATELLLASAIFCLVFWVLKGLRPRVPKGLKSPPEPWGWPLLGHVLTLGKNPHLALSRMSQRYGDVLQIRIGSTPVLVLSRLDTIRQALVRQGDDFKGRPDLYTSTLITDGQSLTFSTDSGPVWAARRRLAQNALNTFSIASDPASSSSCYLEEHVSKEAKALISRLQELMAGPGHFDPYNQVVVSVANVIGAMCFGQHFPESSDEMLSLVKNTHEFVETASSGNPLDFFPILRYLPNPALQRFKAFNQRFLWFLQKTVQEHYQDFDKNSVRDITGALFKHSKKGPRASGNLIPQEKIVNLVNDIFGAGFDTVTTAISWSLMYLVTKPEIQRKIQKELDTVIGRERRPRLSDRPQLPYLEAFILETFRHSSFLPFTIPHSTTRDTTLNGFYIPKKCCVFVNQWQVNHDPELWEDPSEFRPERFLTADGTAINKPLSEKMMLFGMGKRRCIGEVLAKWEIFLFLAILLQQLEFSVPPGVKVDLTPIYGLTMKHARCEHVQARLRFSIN
Description: as §1

[2] = Plasma protein binding, rapid equilibrium dialysis (mouse); type: in vitro ADME; settings: read-out: plasma binding (mouse) protein binding (converted)
Description: This assay determines the plasma protein binding of a drug or compound and free drug concentration in plasma using rapid equilibrium dialysis. We use the Single-Use RED (rapid equilibrium dialysis, Thermo Scientific) devices to allow the aqueous component of plasma containing the free drug/compound through a dialysis membrane (MWCO ∼ 8000). Sample quantification is determined using a Waters ACQUITY-SOQ UPLC-MS-ELDS-UV system.

[3] = Balb/c, mouse and human
Description: Briefly, pooled blood from 3 animals for experiment (male Balb/c 6–8w from the division of laboratory animal medicine in-house breeding colony) was collected, and the heparinized plasma was prepared. Plasma and test compounds were added to individual wells of a 96-well microtiter plate. Compounds were incubated at 37 °C for the provided time points. All tests were performed in triplicates. The test compound was incubated with plasma at six different time points. The reaction was terminated by methanol containing an internal standard. After centrifugation, the concentration of the test compound in the supernatant was quantified by LC-MS/MS.
Plasma stability assay: Briefly, pooled blood from 3 animals for experiment (male Balb/c 6-8w
from the division of laboratory animal medicine in-house breeding colony) was collected, and
the heparinized plasma was prepared. Plasma and test compounds were added to the individual
wells of a 96-well microtiter plate. Compounds were incubated at 37°C for the provided time
points. All tests were performed in triplicates. Then, the test compound was incubated with
plasma at six different time points. The reaction was terminated by the addition of methanol
containing an internal standard. After centrifugation, the concentration of the test compound in
the supernatant was quantified by LC-MS/MS. The percentage of test compound remaining at
compounds are known to be metabolized by plasma esterases,1 and were also incubated with
each batch of test compound.
A standard protocol and MS method was used for the plasma stability experiment. The extraction
procedure for plasma/tissue samples and the spiked plasma/tissue calibration standards were
identical: A 25 µL of study sample or spiked plasma/tissue calibration standard was added to
individual pre-labeled micro-centrifuge tubes followed by 100 µL of internal standard prepared
in Acetonitrile (Albendazole, 500 ng/mL) was added except for blank, where 100 µL of
Acetonitrile was added. Samples were vortexed for 5 minutes. Samples were centrifuged for 5
minutes at a speed of 4000 rpm at 4°C. Following centrifugation, 100 µL of clear supernatant
was transferred in 96 well plates and analyzed using LC-MS/MS mode. The LC system
comprises of a binary pump that can mix two mobile phases: A = Water+0.1% formic acid; B =
acetonitrile +0.1%formic acid. The system was operated in gradient mode using a 6 minute
min, 10-90% A to B in 5.5-6 min, and then hold at this gradient, using a Phenomenex Luna, 150
X 4.6 mm, 5 µm column. Source Parameter: positive, Ion Spray Voltage 5500, Temperature
550C, interface heater on.

For `CC(C)[C@@H](C)/C=C/[C@@H](C)[C@H]1CC[C@@H]2[C@]1(C)CC[C@H]1[C@]23C=C[C@]2(C[C@@H](O)CC[C@]12C)OO3` [Compound 2, Ergosterol peroxide], the IC50 (CYP2B6) was over 25 µM, the IC50 (CYP2C19) was 19.9 µM and the IC50 (CYP2D6) was over 25 µM. The “efflux ratio (B2A/A2B)” value (Caco-2 cells) was 0.93, the Papp at 0.5 h, 50 µM ([1]; PAMPA, pH 7.4, pH 7.40, read-out: PAMPA Avg Pe) was 65.3 ×10⁻⁶ cm/s and the “PAMPA %R” value ([1]; pH 7.40) was 81.90%. The “PAMPA Avg Pe” value ([1]; pH 7.40) was 65.31 10–6 cm/s, the IC50 (CYP1A2) was 16.3 µM and the fraction unbound [2] was 0.14.

For `CC(C)[C@@H](C)/C=C/[C@@H](C)[C@H]1CC[C@@H]2[C@]1(C)CC[C@H]1[C@]23C=C[C@]2(CC(=O)CC[C@]12C)OO3` [Compound 3], the plasma stability [3] was over 48 h and the “PAMPA Avg Pe” value ([1]; PAMPA, 0.5 h, 50 µM, pH 7.4) was 00 10–6 cm/s.
